Test results taken from patent US9931327B2, “Derivatives of 1-phenyl-2-pyridinyl alkyl alcohols as phosphodiesterase inhibitors” (Chiesi Farmaceutici S.p.A., priority 2011, dated 2018).
pIC50: −log10 of the molar value.

These molecules were tested on LPS-induced TNF-α release in peripheral blood mononuclear cells (PBMCs) (assay: In vitro determination of PDE4 inhibitory activity in the PBMCs assay (LPS-induced TNF-α release)). Settings: PBMC; human PBMCs, LPS 3 ng/ml, 18 hours, TNF-α by ELISA; read-out: PDE4 inhibition (IC50, 50% inhibition of LPS-induced TNF-α release).
Format: cell-based, human
Method in brief: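 Cryopreserved human PBMCs (10^5 cells/well) pre-incubated 30 min with compound (10^−12 to 10^−6 M or 10^−3 to 10^−7 M), then stimulated with LPS 3 ng/ml for 18 h at 37 °C. TNF-α in medium by ELISA; IC50 as mean ± 95% confidence limits.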

SMILES	pIC50
CN(C)C(=O)c1cccc(C(=O)N2CCC[C@@H]2C(=O)O[C@@H](Cc2c(Cl)c[n+]([O-])cc2Cl)c2ccc(OC(F)F)c(OCC3CC3)c2)c1 [Compound 185, 3,5-dichloro-4-((S)-2-(3-(cyclopropylmethoxy)-4-(difluoromethoxy)phenyl)-2-((R)-1-(3-(dimethylcarbamoyl)benzoyl)pyrrolidine-2-carbonyloxy)ethyl)pyridine 1-oxide]	9.00 to 10.00
O=C(O[C@@H](Cc1c(Cl)c[n+]([O-])cc1Cl)c1ccc(OC(F)F)c(OCC2CC2)c1)[C@@H]1SCCN1C(=O)c1ccccc1 [Compound 186, 4-((S)-2-((S)-3-benzoylthiazolidine-2-carbonyloxy)-2-(3-(cyclopropylmethoxy)-4-(difluoromethoxy)phenyl)ethyl)-3,5-dichloropyridine 1-oxide]	9.00 to 10.00
CN(C)C(=O)c1cccc(C(=O)N2CCS[C@H]2C(=O)O[C@@H](Cc2c(Cl)c[n+]([O-])cc2Cl)c2ccc(OC(F)F)c(OCC3CC3)c2)c1 [Compound 187, 3,5-dichloro-4-((S)-2-(3-(cyclopropylmethoxy)-4-(difluoromethoxy)phenyl)-2-((S)-3-(3-(dimethylcarbamoyl)benzoyl)thiazolidine-2-carbonyloxy)ethyl)pyridine 1-oxide]	9.00 to 10.00
CN(C)C(=O)c1cccc(CC(=O)N2CCS[C@H]2C(=O)O[C@@H](Cc2c(Cl)c[n+]([O-])cc2Cl)c2ccc(OC(F)F)c(OCC3CC3)c2)c1 [Compound 198, 3,5-dichloro-4-((S)-2-(3-(cyclopropylmethoxy)-4-(difluoro-methoxy)phenyl)-2-((S)-3-(2-(3-(dimethylcarbamoyl)phenyl)acetyl)-thiazolidine-2-carbonyloxy)ethyl)pyridine 1-oxide]	9.00 to 10.00
N#Cc1ccccc1S(=O)(=O)N1CCS[C@H]1C(=O)O[C@@H](Cc1c(Cl)c[n+]([O-])cc1Cl)c1ccc(OC(F)F)c(OCC2CC2)c1 [Compound 200, 3,5-dichloro-4-((S)-2-((S)-3-(2-cyanophenylsulfonyl)thiazolidine-2-carbonyloxy)-2-(3-(cyclopropylmethoxy)-4-(difluoromethoxy)phenyl)ethyl)pyridine 1-oxide]	9.00 to 10.00
O=C(O[C@@H](Cc1c(Cl)c[n+]([O-])cc1Cl)c1ccc(OC(F)F)c(OCC2CC2)c1)[C@@H]1SCCN1S(=O)(=O)c1ccc2c(c1)OCCO2 [Compound 201, 3,5-dichloro-4-((S)-2-(3-(cyclopropylmethoxy)-4-(difluoromethoxy)phenyl)-2-((S)-3-(2,3-dihydrobenzo[b][1,4]dioxin-6-ylsulfonyl)thiazolidine-2-carbonyloxy)ethyl)pyridine 1-oxide]	9.00 to 10.00
Cc1cc(S(=O)(=O)N2CCS[C@H]2C(=O)O[C@@H](Cc2c(Cl)c[n+]([O-])cc2Cl)c2ccc(OC(F)F)c(OCC3CC3)c2)c(C)s1 [Compound 203, 3,5-dichloro-4-((S)-2-(3-(cyclopropylmethoxy)-4-(difluoromethoxy)phenyl)-2-((S)-3-(2,5-dimethylthiophen-3-ylsulfonyl)thiazolidine-2-carbonyloxy)ethyl)pyridine 1-oxide]	9.00 to 10.00
N#Cc1ccc(S(=O)(=O)N2CCS[C@H]2C(=O)O[C@@H](Cc2c(Cl)c[n+]([O-])cc2Cl)c2ccc(OC(F)F)c(OCC3CC3)c2)cc1 [Compound 206, 3,5-dichloro-4-((S)-2-((S)-3-(4-cyanophenylsulfonyl)thiazolidine-2-carbonyloxy)-2-(3-(cyclopropylmethoxy)-4-(difluoromethoxy)phenyl)ethyl)pyridine 1-oxide]	> 10.00
N#Cc1cccc(S(=O)(=O)N2CCS[C@H]2C(=O)O[C@@H](Cc2c(Cl)c[n+]([O-])cc2Cl)c2ccc(OC(F)F)c(OCC3CC3)c2)c1 [Compound 207, 3,5-dichloro-4-((S)-2-((S)-3-(3-cyanophenylsulfonyl)thiazolidine-2-carbonyloxy)-2-(3-(cyclopropylmethoxy)-4-(difluoromethoxy)phenyl)ethyl)pyridine 1-oxide]	9.00 to 10.00
N#Cc1cc(S(=O)(=O)N2CCS[C@H]2C(=O)O[C@@H](Cc2c(Cl)c[n+]([O-])cc2Cl)c2ccc(OC(F)F)c(OCC3CC3)c2)ccc1F [Compound 209, 3,5-dichloro-4-((S)-2-((S)-3-(3-cyano-4-fluorophenylsulfonyl)thiazolidine-2-carbonyloxy)-2-(3-(cyclopropylmethoxy)-4-(difluoromethoxy)phenyl)ethyl)pyridine 1-oxide]	9.00 to 10.00
CN1C(=O)Cc2cc(S(=O)(=O)N3CCS[C@H]3C(=O)O[C@@H](Cc3c(Cl)c[n+]([O-])cc3Cl)c3ccc(OC(F)F)c(OCC4CC4)c3)ccc21 [Compound 210, 3,5-dichloro-4-((S)-2-(3-(cyclopropylmethoxy)-4-(difluoromethoxy)phenyl)-2-((S)-3-(1-methyl-2-oxoindolin-5-ylsulfonyl)thiazolidine-2-carbonyloxy)ethyl)pyridine 1-oxide]	> 10.00
CN(C)C(=O)c1cccc(S(=O)(=O)N2CCC[C@@H](C(=O)O[C@@H](Cc3c(Cl)c[n+]([O-])cc3Cl)c3ccc(OC(F)F)c(OCC4CC4)c3)C2)c1 [Compound 228]	9.00 to 10.00
CNC(=O)c1cc(S(=O)(=O)N2CCS[C@H]2C(=O)O[C@@H](Cc2c(Cl)c[n+]([O-])cc2Cl)c2ccc(OC(F)F)c(OCC3CC3)c2)cn1C [Compound 241, 3,5-dichloro-4-((S)-2-(3-(cyclopropylmethoxy)-4-(difluoromethoxy)phenyl)-2-((S)-3-(1-methyl-5-(methylcarbamoyl)-1H-pyrrol-3-ylsulfonyl)thiazolidine-2-carbonyloxy)ethyl)pyridine 1-oxide]	> 10.00
O=C(O[C@@H](Cc1c(Cl)c[n+]([O-])cc1Cl)c1ccc(OC(F)F)c(OCC2CC2)c1)[C@@H]1SCCN1S(=O)(=O)c1c[nH]c(C(=O)N2CCCC2)c1 [Compound 242, 3,5-dichloro-4-((S)-2-(3-(cyclopropylmethoxy)-4-(difluoromethoxy)phenyl)-2-((S)-3-(5-(pyrrolidine-1-carbonyl)-1H-pyrrol-3-ylsulfonyl)thiazolidine-2-carbonyloxy)ethyl)pyridine 1-oxide]	> 10.00
Cn1ccnc1S(=O)(=O)N1CCS[C@H]1C(=O)O[C@@H](Cc1c(Cl)cncc1Cl)c1ccc(OC(F)F)c(OCC2CC2)c1 [Compound 243, (S)-((S)-1-(3-(cyclopropylmethoxy)-4-(difluoromethoxy)phenyl)-2-(3,5-dichloropyridin-4-yl)ethyl) 3-(1-methyl-1H-imidazol-2-ylsulfonyl)thiazolidine-2-carboxylate]	9.00 to 10.00
O=C(O[C@@H](Cc1c(Cl)c[n+]([O-])cc1Cl)c1ccc(OC(F)F)c(OCC2CC2)c1)[C@H]1CCCN1S(=O)(=O)c1ccccc1 [Compound 244, 3,5-dichloro-4-((S)-2-(3-(cyclopropylmethoxy)-4-(difluoromethoxy)phenyl)-2-((R)-1-(phenylsulfonyl)pyrrolidine-2-carbonyloxy)ethyl)pyridine 1-oxide]	8.00 to 9.00
CN1CCOc2ccc(S(=O)(=O)N3CCC[C@H]3C(=O)O[C@@H](Cc3c(Cl)c[n+]([O-])cc3Cl)c3ccc(OC(F)F)c(OCC4CC4)c3)cc21 [Compound 250, 3,5-dichloro-4-((S)-2-(3-(cyclopropylmethoxy)-4-(difluoromethoxy)phenyl)-2-((S)-1-(4-methyl-3,4-dihydro-2H-benzo[b][1,4]oxazin-6-ylsulfonyl)pyrrolidine-2-carbonyloxy)ethyl)pyridine 1-oxide]	> 10.00
